Measured values: article PMC7614683, “A small molecule PI3Kα activator for cardioprotection and neuroregeneration” (Nature, 2023)
“And” between values parts separate entries of the source, which are not always exact repeats. Equal entries are not always repeated.

What was measured:
full length p110α/p85α = target: T1, full length p110α/p85α (Homo sapiens, UniProt P42336); assay: Differential scanning fluorimetry; assay type: binding; settings: mean ± SD, n=3; read-out: Kd for PI3Kα by differential scanning fluorimetry
T1 construct: Full-length human p110α was expressed either in a complex with full-length human p85α (for HTS, biochemistry and HDX-MS); 6xHis tag followed by TEV protease site (N); host or cells: Spodoptera frugiperda Sf9, baculovirus
Method: Thermal denaturation was followed using intrinsic protein fluorescence measured with the NanoTemper Prometheus NT48 instrument (Nanotemper Technologies, München, Germany). Samples in HBS-P (Cytiva) supplemented with 5% (v/v) DMSO containing 3 μM full length p110α/p85α and a 1:2 dilution series of 1938 (from 440 μM to 13.8 nM) were loaded into standard capillaries and heated at 2 °C/min from 15 to 95 °C. The first derivative of the fluorescence emission ratio 350/330 nm were analyzed using the PR.ThermControl v2.3.1 (NanoTemper), to define the Tm. Independent experiments using the same protein and compound stocks were performed in triplicate. Data were fitted using Prism 9.4.1 (GraphPad Software Inc). Dissociation constants were calculated using fits to a single-site ligand depletion model: (2) T=T0+(T1−T0){([CT]+[PT]+[KD])−([CT]+[PT]+KD)^2−4[CT][PT]}/2[PT] where T0 and T1 are the Tm in the absence of titrating compound and at saturation respectively, [PT] and [CT] are the total concentrations of protein and compound respectively and KD is the dissociation constant.

MCF10A cells = assay: pAKT S473 western blot, MCF10A; assay type: cell-based, human
PI3Kα H1047R mutant = PI3Kα H1047R mutant (Homo sapiens, UniProt P42336, H1047R); assay: ADP-Glo catalytic activity, oncogenic mutant H1047R; assay type: biochemical
Method: For characterisation of the effects of 1938 on in vitro PI3K enzymology, all reactions were performed at room temperature with 384 white-polystyrene plates (Corning #3574). The final DMSO concentration in the assay was between 0.5%-1.8%. The reaction mixture contained 2 μl PI3K enzyme, 2 μl compound and/or pY and 2 μl of liposome substrate mixed with ATP. ATP was used at a final concentration of 200 μM, unless otherwise stated. The enzyme and compounds were pre-incubated for 10 min prior to addition of substrate. The reaction was allowed to proceed for up to 45 min at room temperature, before addition of 6 μl of ADP-Glo R1 to terminate the reaction. The plate was incubated for 60 min, followed by addition of 12 μl of ADP-Glo R2 and incubated further for 60 min in the dark. Data was expressed as velocity (nmol of ADP generated/nmol of enzyme/sec). ADP-ATP standard curves were performed according to the manufacturer’s instructions. Luminescence was read using a PHERAstar® plate reader with software version 5.41, and analyses were performed using GraphPad Prism 8/9.

PI3Kα E545K mutant = target: T2, PI3Kα E545K mutant (Homo sapiens, UniProt P42336, E545K); assay: ADP-Glo catalytic activity, oncogenic mutant E545K; assay type: biochemical
T2 construct: Full-length human p110α was expressed either in a complex with full-length human p85α (for HTS, biochemistry and HDX-MS); 6xHis tag followed by TEV protease site (N); host or cells: Sf9, baculovirus
Method: Expression and purification of wild-type p110α (Cambridge MRC Laboratory for Molecular Biology (LMB-MRC) plasmid number OP831) in a complex with full-length p85α (LMB-MRC plasmid OP809) was performed as described. The oncogenic mutants G106V (LMB-MRC plasmid JB35), N345K (LMB-MRC plasmid OP661) and E545K (LMB-MRC plasmid OP663) were also purified using this protocol. Briefly, 10 litres of Spodoptera frugiperda (Sf9) cell culture at a density of 1.0 x 10^6 cells/ml were co-infected with a p85α-encoding virus [LMB-MRC plasmid OP809]. and a virus encoding p110α with an N-terminal 6xHis tag followed by a tobacco etch virus (TEV) protease site [LMB-MRC plasmid OP831]. After a 48 h infection at 27°C, cells were harvested and washed with PBS. […]
For characterisation of the effects of 1938 on in vitro PI3K enzymology, all reactions were performed at room temperature with 384 white-polystyrene plates (Corning #3574). […] Data was expressed as velocity (nmol of ADP generated/nmol of enzyme/sec). […] Luminescence was read using a PHERAstar® plate reader with software version 5.41, and analyses were performed using GraphPad Prism 8/9.

mouse heart = assay: In vivo model of ischaemia reperfusion injury in mice; settings: 10 mg/kg 1938 i.v., heart after 15 min; single mice

Sequence of PI3Kα H1047R mutant (P42336 whole entry H1047R): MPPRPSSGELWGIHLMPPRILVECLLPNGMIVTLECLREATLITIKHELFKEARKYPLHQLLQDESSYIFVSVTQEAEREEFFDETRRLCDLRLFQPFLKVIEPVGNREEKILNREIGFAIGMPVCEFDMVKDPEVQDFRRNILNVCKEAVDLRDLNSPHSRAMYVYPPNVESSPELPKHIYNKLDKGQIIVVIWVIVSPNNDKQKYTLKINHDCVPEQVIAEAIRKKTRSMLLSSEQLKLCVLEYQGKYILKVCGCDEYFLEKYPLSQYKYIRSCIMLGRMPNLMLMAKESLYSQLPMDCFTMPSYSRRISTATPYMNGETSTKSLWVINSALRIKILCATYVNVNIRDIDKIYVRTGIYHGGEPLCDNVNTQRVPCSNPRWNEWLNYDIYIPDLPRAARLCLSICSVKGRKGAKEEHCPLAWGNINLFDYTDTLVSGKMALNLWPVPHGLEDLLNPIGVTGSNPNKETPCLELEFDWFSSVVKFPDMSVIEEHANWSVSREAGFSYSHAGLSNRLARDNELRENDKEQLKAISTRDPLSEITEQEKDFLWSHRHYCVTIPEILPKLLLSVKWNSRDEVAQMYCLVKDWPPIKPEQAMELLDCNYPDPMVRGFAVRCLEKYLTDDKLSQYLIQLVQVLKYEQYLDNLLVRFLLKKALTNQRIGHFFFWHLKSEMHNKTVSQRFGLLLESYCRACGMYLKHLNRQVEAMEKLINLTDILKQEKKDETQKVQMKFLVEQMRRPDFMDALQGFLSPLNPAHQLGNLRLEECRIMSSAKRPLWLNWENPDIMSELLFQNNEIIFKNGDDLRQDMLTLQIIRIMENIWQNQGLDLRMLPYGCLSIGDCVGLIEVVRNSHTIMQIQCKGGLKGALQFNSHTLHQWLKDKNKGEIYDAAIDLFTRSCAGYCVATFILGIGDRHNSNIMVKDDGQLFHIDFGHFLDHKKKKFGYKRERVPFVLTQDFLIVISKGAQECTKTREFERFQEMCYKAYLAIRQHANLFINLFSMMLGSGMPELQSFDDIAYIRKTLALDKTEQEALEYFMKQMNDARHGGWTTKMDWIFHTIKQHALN
Sequence of PI3Kα H1047R mutant (P27986 whole entry partner): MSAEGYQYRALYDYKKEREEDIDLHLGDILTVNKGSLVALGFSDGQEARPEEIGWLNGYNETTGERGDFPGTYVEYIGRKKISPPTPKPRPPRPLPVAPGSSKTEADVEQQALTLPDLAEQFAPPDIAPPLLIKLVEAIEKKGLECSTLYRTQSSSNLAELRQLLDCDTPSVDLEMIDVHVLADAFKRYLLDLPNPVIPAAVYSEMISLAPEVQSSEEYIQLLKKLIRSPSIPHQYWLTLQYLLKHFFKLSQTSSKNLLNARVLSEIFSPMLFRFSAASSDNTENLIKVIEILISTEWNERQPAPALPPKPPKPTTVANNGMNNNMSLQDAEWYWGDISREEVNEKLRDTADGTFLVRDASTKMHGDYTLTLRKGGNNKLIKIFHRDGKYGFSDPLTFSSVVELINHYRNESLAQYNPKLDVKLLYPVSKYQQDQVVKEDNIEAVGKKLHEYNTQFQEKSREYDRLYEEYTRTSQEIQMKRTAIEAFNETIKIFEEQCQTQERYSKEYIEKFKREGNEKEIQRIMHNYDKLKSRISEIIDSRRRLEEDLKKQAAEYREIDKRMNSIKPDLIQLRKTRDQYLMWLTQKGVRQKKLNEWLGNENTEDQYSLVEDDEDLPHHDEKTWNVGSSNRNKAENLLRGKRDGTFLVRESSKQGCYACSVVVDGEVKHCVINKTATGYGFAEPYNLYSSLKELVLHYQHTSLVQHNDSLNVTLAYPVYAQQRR
T1 sequence (P42336 whole entry): as the sequence (P42336 whole entry H1047R) above, with R1047H counted along it
T1 sequence (P27986 whole entry partner): as the sequence (P27986 whole entry partner) above
T2 sequence (P42336 whole entry E545K): as the sequence (P42336 whole entry H1047R) above, with E545K, R1047H counted along it
T2 sequence (P27986 whole entry partner): as the sequence (P27986 whole entry partner) above

## CCN1CCN(c2ccc(Nc3cc(Nc4cccc5c4N(C(C)=O)CC5)ccn3)cc2)CC1 [Compound 1938]
Full length p110α/p85α
  Kd: 16 ± 2 µM
MCF10A cells
  pAKT^S473 increase: BYL719-sensitive increase in pAKT^S473
PI3Kα H1047R mutant
  activation of H1047R mutant: levels comparable with stimulation with pY
PI3Kα E545K mutant
  activation of E545K mutant: could be further activated by 1938
Mouse heart
  Western blot pAkt in vivo: pAkt/tAkt: 7.58 and 5.35 and 5.18
